Test results from article PMC5454376, “Molecular mechanism of Gαi activation by non-GPCR proteins with a Gα-Binding and Activating motif” (Nature Communications, 2017).
Where a SMILES comes first, the peptide text is derived from it. The star is where a group is joined. 6FAM = O=C1OC2(c3ccc(O)cc3Oc3cc(O)ccc32)c2cc(C(=O)*)ccc21

Columns and labels:
His-Gαi3 W211A and F215A = assay: Gβγ-binding pull-down assay; set-up: species or system human; settings: bovine Gβ1γ1 100 nM, Gαi3 50 nM, 4 h, 4 °C, 30 μM GDP
Method: Gβγ was purified from bovine retinas, which are primarily composed of Gβ1γ1 by purification of holotransducin from rod outer segment (ROS) membranes isolated from dark-adapted bovine followed by separation of the Gβ1γ1 complex from the α-subunit of transducin on a Hitrap Blue-sepharose column (GE healthcare), and further purification by anion exchange chromatography using a Hitrap-Q column.
For binding assays, Gβ1γ1 (100 nM final) was incubated in the absence or presence of human His-tagged Gαi3 WT or mutants (50 nM final) in 250 μl of binding buffer (50 mM Tris-HCl, pH 7.4, 100 mM NaCl, 0.4% (v:v) NP-40, 5 mM MgCl2, 10 mM imidazole, 0.1 mg ml^−1 BSA, 1 mM DTT and 30 μM GDP) for 4 h at 4 °C with rotation. A volume of 25 μl of BSA-blocked HisPur cobalt resin (Pierce) were added to each tube and the incubation continued for 90 min. Beads were washed four times with 1 ml of binding buffer and resin-bound proteins eluted by adding Laemmli sample buffer supplemented with 100 mM EDTA and boiling for 5 min. […]

Gαi3-GDP = assay: NMR perturbation of Gαi3-GDP backbone amide signals; assay type: binding, human; settings: fivefold molar excess of peptide, 30 °C, pH 7.0
Method: Full-length human Gαi3 (UNIPROT entry P08754) cloned in a pET24d(+) plasmid (a generous gift from Ichio Shimada, University of Tokyo) was used to purify the protein used in NMR experiments. For this, protein expression was induced in BL21 Rosetta (Life Technologies) cell cultures with 1 mM IPTG for 16 h at 23 °C in a modified M9 minimal medium containing 1 g l^−1 15N-NH4Cl, 2 g l^−1 2H-^13C-glucose and 1 g l^−1 of ^2H-^13C-^15N Celtone base powder in ^2H2O with 30 mg l^−1 kanamycin and 34 mg l^−1 chloramphenicol. The pelleted cells were lysed by sonication in 50 mM Tris, 200 mM NaCl, 100 mM KCl and 1 mM DTT at pH 8.0, and the supernatant was loaded on a Ni^2+-loaded His-Trap FF column. […]
All NMR data were measured on a Bruker Avance III 800 MHz (18.8 T) spectrometer equipped with a cryogenically cooled triple resonance z-gradient probe, processed with Topspin (Bruker) and analysed with Sparky. […] Gαi3 spectra were recorded at 30 °C on ^2H-^13C-^15N–Gαi3 samples with a threefold molar excess of GDP in 10 mM HEPES (pH 7.0) with 10 mM MgCl2, 5 mm DTT, 0.01% NaN3 and 5% ^2H2O. […] The assignment of Gαi3 resonances in the presence of a fivefold molar excess of GIV fragment 1,671–1,696 was achieved from the joint analysis of an HNCO and ^1H–^15N TROSY spectra recorded along a titration (at molar ratios 1:0, 1:0.2,1:0.5, 1:1, 1:2 and 1:5). […]

[1] = test system: His-Gαi3 mutants in complex with Gβ1γ1; assay: Steady-state GTPase assay with rhodopsin; assay type: biochemical, human; settings: rhodopsin 20 nM, Gαi3/Gβ1γ1 100/200 nM, 30 °C
Method: Steady-state GTPase assays with rhodopsin
ROS membranes washed with urea were prepared as described earlier and used as the source of rhodopsin[67]. Human His-tagged Gαi3 WT and mutants (20–25 μM) were incubated overnight at 4 °C with twofold excess Gβ1γ1 in 20 mM Tris-HCl, pH 7.4, 20 mM NaCl, 1 mM MgCl2, 1 mM DTT, 10 μM GDP and 5% (v/v) glycerol. Bovine rhodopsin was freshly solubilized from urea-washed ROS membranes in assay buffer (20 mM HEPES, pH 7.5, 100 mM NaCl, 5 mM MgCl2, 1 mM DTT and 0.01% (w:v) dodecylmaltoside) for each experiment. Gαi3/Gβ1γ1 (100/200 nM final) and rhodopsin (20 nM final) were incubated in ice for 30 min under ambient light in assay buffer. Reactions were initiated at 30 °C by adding an equal volume of assay buffer containing 1 μM [γ-^32P]GTP (∼50 c.p.m. fmol^−1) and stopped in duplicates by mixing 25 μl of the reaction with 975 μl of ice-cold 5% (w/v) activated charcoal in 20 mM H3PO4, pH 3. Samples were then centrifuged for 10 min at 10,000g, and 500 μl of the resultant supernatant were scintillation-counted to quantify the amount of [^32P]Pi released. Background [^32P]Pi detected at 15 min in the absence of G protein was subtracted from each reaction (<5% of the counts detected in the presence of G proteins). Results were expressed as per cent of the activity of Gi3 WT without rhodopsin.

His-Gαi3 L249V = target: T1, His-Gαi3 L249V (Homo sapiens, UniProt P08754, L249V); assay: Fluorescence polarization peptide binding, Gαi3 L249V; settings: peptide 0.025 μM, pH 7.4, room temperature, mean±s.e.m., n=3–7, Fig. 4d, read-out: Kd ± SEM
T1 construct: Full-length human Gαi3 (UNIPROT entry P08754) cloned in a pET24d(+) plasmid; made in house; host or cells: E. coli BL21 Rosetta
T1 sequence (P08754 whole entry L249V): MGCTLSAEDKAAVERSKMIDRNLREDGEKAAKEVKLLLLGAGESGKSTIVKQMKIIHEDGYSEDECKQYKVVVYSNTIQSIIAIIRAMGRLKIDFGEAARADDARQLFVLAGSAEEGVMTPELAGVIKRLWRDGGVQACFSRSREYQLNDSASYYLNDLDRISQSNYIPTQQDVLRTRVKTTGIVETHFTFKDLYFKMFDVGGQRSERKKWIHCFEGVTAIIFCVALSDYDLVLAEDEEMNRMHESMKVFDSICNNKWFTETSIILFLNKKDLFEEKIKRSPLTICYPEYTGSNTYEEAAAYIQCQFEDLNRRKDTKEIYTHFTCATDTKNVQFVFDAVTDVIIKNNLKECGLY
Method: (§1) Human Gαi3 was expressed from the same plasmid as described for the NMR studies and purified as an uncleaved His-tagged protein. […] After sonication (four cycles, with pulses lasting 20 s and with 1 min interval between pulses to prevent heating), lysates were centrifuged at 12,000g for 20 min at 4 °C. […] The buffer was exchanged for 20 mM Tris-HCl, pH 7.4, 20 mM NaCl, 1 mM MgCl2, 1 mM DTT, 10 μM GDP and 5% (v/v) glycerol using a HiTrap Desalting column (GE Healthcare). Protein samples were stored at −80 °C.
(§2) Fluorescence polarization-based peptide-binding assays
(§3) Briefly, following chain elongation 5,6-carboxyfluorescein was activated with HATU and coupled to the resin-bound peptide at 65 °C for 1 h to yield the fluorescein-labelled peptides. […] Fluorescence polarization measurements were carried out in 384-well plates (Black OptiPlate-384F, Perkin Elmer). […] Fluorescence polarization (excitation 485±10 nm/emission 528±10 nm) was measured every 2 min for 30 min at room temperature in a Biotek H1 synergy plate reader to ensure that the signals were stable in time. Fluorescence polarization at different times was averaged, normalized and fitted to a one site binding hyperbola to determine the equilibrium dissociation constant (Kd). For mutants not reaching binding saturation, the maximal binding of Gαi3 WT measured in the same experimental set was considered 100% binding for normalization.

His-Gαi3 K35A = target: T2, His-Gαi3 K35A (Homo sapiens, UniProt P08754, K35A); assay: Fluorescence polarization peptide binding, Gαi3 K35A; settings: peptide 0.025 μM, pH 7.4, room temperature, mean±s.e.m., n=3–7, Fig. 4d, read-out: Kd ± SEM
T2 construct: Full-length human Gαi3 (UNIPROT entry P08754) cloned in a pET24d(+) plasmid; made in house; host or cells: E. coli BL21 Rosetta
T2 sequence (P08754 whole entry K35A): as the sequence (P08754 whole entry L249V) above, with K35A, V249L counted along it
Method: as §1, §2, §3

His-Gαi3 W211A = target: T3, His-Gαi3 W211A (Homo sapiens, UniProt P08754, W211A); assay: Fluorescence polarization peptide binding, Gαi3 W211A; settings: peptide 0.025 μM, pH 7.4, room temperature, mean±s.e.m., n=3–7, Fig. 4d, read-out: Kd ± SEM
T3 construct: Full-length human Gαi3 (UNIPROT entry P08754) cloned in a pET24d(+) plasmid; made in house; host or cells: E. coli BL21 Rosetta
T3 sequence (P08754 whole entry W211A): as the sequence (P08754 whole entry L249V) above, with W211A, V249L counted along it
Method: as §1, §2, §3

His-Gαi3 F215A = target: T4, His-Gαi3 F215A (Homo sapiens, UniProt P08754, F215A); assay: Fluorescence polarization peptide binding, Gαi3 F215A; settings: peptide 0.025 μM, pH 7.4, room temperature, mean±s.e.m., n=3–7, Fig. 4d, read-out: Kd ± SEM
T4 construct: Full-length human Gαi3 (UNIPROT entry P08754) cloned in a pET24d(+) plasmid; made in house; host or cells: E. coli BL21 Rosetta
T4 sequence (P08754 whole entry F215A): as the sequence (P08754 whole entry L249V) above, with F215A, V249L counted along it
Method: as §1, §2, §3

His-Gαi3 N256E = target: T5, His-Gαi3 N256E (Homo sapiens, UniProt P08754, N256E); assay: Fluorescence polarization peptide binding, Gαi3 N256E; settings: peptide 0.025 μM, pH 7.4, room temperature, mean±s.e.m., n=3–7, Fig. 4d, read-out: Kd ± SEM
T5 construct: Full-length human Gαi3 (UNIPROT entry P08754) cloned in a pET24d(+) plasmid; made in house; host or cells: E. coli BL21 Rosetta
T5 sequence (P08754 whole entry N256E): as the sequence (P08754 whole entry L249V) above, with V249L, N256E counted along it
Method: as §1, §2, §3

ΔHis-Gαi3 = target: T6, ΔHis-Gαi3 (Homo sapiens, UniProt P08754); assay: Fluorescence polarization peptide binding, ΔHis-Gαi3; settings: room temperature, n=3, Supplementary Fig. 5
T6 construct: Full-length human Gαi3 (UNIPROT entry P08754) cloned in a pET24d(+) plasmid; His-tag (N, cleaved yes); made in house; host or cells: E. coli BL21 Rosetta
T6 sequence (P08754 whole entry, stated change not applied): as the sequence (P08754 whole entry L249V) above, with V249L counted along it
Method: Briefly, following chain elongation 5,6-carboxyfluorescein was activated with HATU and coupled to the resin-bound peptide at 65 °C for 1 h to yield the fluorescein-labelled peptides. The remaining steps were carried out as described above. Fluorescence polarization measurements were carried out in 384-well plates (Black OptiPlate-384F, Perkin Elmer). […] Fluorescence polarization (excitation 485±10 nm/emission 528±10 nm) was measured every 2 min for 30 min at room temperature in a Biotek H1 synergy plate reader to ensure that the signals were stable in time. Fluorescence polarization at different times was averaged, normalized and fitted to a one site binding hyperbola to determine the equilibrium dissociation constant (Kd). For mutants not reaching binding saturation, the maximal binding of Gαi3 WT measured in the same experimental set was considered 100% binding for normalization.

With “Gβγ: retinal Gβγ (Gβ1γ1) purified from bovine retinas” as the molecule, how does the “binding to Gαi3 W211A and F215A” value (His-Gαi3 W211A and F215A) read?
The value was “abolished”.

How did the “overall decrease in signal intensities” value (Gαi3-GDP) turn out when “KTGSPGSEVVTLQQFLEESNKLTSVQ [GIVpept, peptide corresponding to GIV amino acids 1,671–1,696]” was run?
Its value is about 15%.

What does the source list for “rhodopsin: bovine rhodopsin solubilized from urea-washed ROS membranes”?
activation of Gαi3 mutants ([1]; K35A, L249H, S252D and N256E): activated efficiently; activation of Gαi3 ΔC9 ([1]; ΔC9): completely abolished

For CC[C@H](C)[C@H](NC(=O)[C@H](CC(C)C)NC(=O)[C@H](CCC(=O)O)NC(=O)[C@H](Cc1ccccc1)NC(=O)[C@H](Cc1ccccc1)NC(=O)[C@H](CCC(=O)O)NC(=O)[C@H](CCC(=O)O)NC(=O)[C@H](C)NC(=O)[C@H](CCC(=O)O)NC(=O)[C@H](CC(=O)O)NC(=O)c1ccc2c(c1)C1(OC2=O)c2ccc(O)cc2Oc2cc(O)ccc21)C(=O)N[C@@H](CO)C(=O)N[C@@H](CCCCN)C(=O)N[C@@H](C)C(=O)N[C@@H](CCC(N)=O)C(=O)N[C@@H](CO)C(=O)N[C@@H](CC(N)=O)C(=O)N[C@@H](CCCNC(=N)N)C(=O)N[C@@H](C)C(=O)N[C@@H](CC(=O)O)C(=O)N[C@@H](CC(=O)O)C(=O)N[C@@H](CCC(N)=O)C(=O)N[C@@H](CCCNC(=N)N)C(=O)NCC(=O)N[C@@H](CC(C)C)C(=O)N[C@@H](CC(C)C)C(=O)N[C@@H](CCCNC(=N)N)C(=O)N[C@@H](CCCCN)C(=O)N[C@@H](CCC(=O)O)C(=O)N[C@@H](CC(=O)O)C(=O)N[C@@H](CC(C)C)C(=O)N[C@H](C(=O)N[C@@H](CC(C)C)C(=O)N1CCC[C@H]1C(=O)N[C@@H](CCC(=O)O)C(=O)N[C@@H](Cc1ccccc1)C(=O)N[C@@H](CC(C)C)C(=O)N[C@@H](CCCNC(=N)N)C(N)=O)C(C)C [RGS12, reference compound] (6FAM-DEAEEFFELISKAQSNRADDQRGLLRKEDLVLPEFLR-NH2), which Kd (His-Gαi3 L249V) is on record?
The Kd was 0.084 ± 0.009 µM.

CC[C@H](C)[C@H](NC(=O)[C@H](CCC(N)=O)NC(=O)[C@@H](NC(=O)[C@H](CO)NC(=O)[C@@H](NC(=O)[C@H](CC(C)C)NC(=O)[C@H](CCCCN)NC(=O)[C@H](CC(N)=O)NC(=O)[C@H](CO)NC(=O)[C@H](CCC(=O)O)NC(=O)[C@H](CCC(=O)O)NC(=O)[C@H](CC(C)C)NC(=O)[C@H](Cc1ccccc1)NC(=O)[C@H](CCC(N)=O)NC(=O)[C@H](CCC(N)=O)NC(=O)[C@H](CC(C)C)NC(=O)[C@@H](NC(=O)[C@@H](NC(=O)[C@@H](NC(=O)[C@H](CCC(=O)O)NC(=O)[C@H](CO)NC(=O)CNC(=O)[C@@H]1CCCN1C(=O)[C@H](CO)NC(=O)CNC(=O)[C@@H](NC(=O)[C@H](CCCCN)NC(=O)c1ccc2c(c1)C1(OC2=O)c2ccc(O)cc2Oc2cc(O)ccc21)[C@@H](C)O)C(C)C)C(C)C)[C@@H](C)O)[C@@H](C)O)C(C)C)C(=O)N[C@@H](CCCCN)C(=O)N[C@@H](CO)C(=O)N[C@@H](CO)C(=O)N[C@@H](CO)C(N)=O [GIV] was tested. Which Kd (His-Gαi3 K35A) did it give?
The Kd was over 10 µM.

And the Kd (His-Gαi3 W211A)?
The Kd was over 20 µM.

And the Kd (His-Gαi3 F215A)?
Its Kd is over 10 µM.

What about the Kd (His-Gαi3 L249V) of the same molecule?
The Kd was 1.37 ± 0.199 µM.

And the Kd (His-Gαi3 N256E)?
Its Kd is over 20 µM.

What about the “affinity for ΔHis-Gαi3 compared with His-Gαi3” value (ΔHis-Gαi3) of the same molecule?
The value was “the same affinity”.
